Several values for one entry are separate records, joined by “and”; a condition that tells them apart may be missing. Identical values can stand only once. No end group written: not given here.
Assays:
[1] = system: molinate-MoAb 14D7 immunocomplex; assay: Noncompetitive phage ELISA (PHAIA) for molinate; format: binding; conditions: molinate as analyte, plates coated with MoAb 14D7, named phage borne peptide as tracer
Excerpt: In a similar way that the IC50 (the analyte concentration producing 50% inhibition) is used to denote the sensitivity of competitive methods, we refer to the concentration of analyte producing 50% saturation (SC50) in noncompetitive assays as a practical parameter to compare the sensitivity of our assays. […] For each of these clones, the assay conditions were optimized as described previously. […] These differences highlight the importance of the residues that flank the WDT consensus sequence of the selected peptides. This can be seen in the case of the S1 and S4 peptide sequences, which only differ in two amino acids and yield assays with SC50 of 5 and 32 ng/ml, respectively.
(§1) Nunc-Immuno™ Maxi-Sorp™ plates were coated with MoAb 14D7 or molinate-MoAb 14D7 immunocomplex as described previously. The wells were blocked with 5% skimmed milk PBS, and washed three times with PBST. One hundred μl/well of an overnight culture of individual amplified phage clones were dispensed into the wells. The microtiter plates where then incubated for 1 h at room temperature with gentle rocking. After washing three times with PBST, 100 μL of a 1/5000 dilution of horse radish peroxidase (HRP) labeled anti-M13 monoclonal antibody (Pharmacia, Uppsala) in PBST were added to each well. One hour later, the plates were thoroughly washed and 100 μl of peroxidase substrate (25 ml of 0.1 M citrate acetate buffer pH 5.5, 0.4 ml of 6 mg/ml DMSO solution of 3,3′,5,5′-tetramethylbenzidine, and 0.1 ml of 1% H2O2) were dispensed into each well. The enzymatic reaction was stopped after 15-20 min by the addition of 50 μl of 2 M H2SO4, and the absorbance at 450 nm (corrected at 600 nm) was read in a microtiter plate reader (Multiskan MS, Labsystems). The supernatants showing high readings in wells coated with the immunocomplex and low response in antibody coated wells were prepared as stabilized phage suspensions (see below), and use for further analysis. For checkerboard titration, 100 μl of variable concentrations of the antibody (0.3-2 μg/ml) were used for coating.
(§2) Fifty μl per well of serial dilutions of molinate standard in PBST were dispensed into microtiter plates coated with MoAb 14D7, followed by the addition of 50 μl/well of the adequate dilution of the stabilized phage suspension. The antibody concentration used for coating and the proper dilution of the phage suspension had been previously optimized by checkerboard experiments. After an hour incubation period at room temperature, the plates were washed and developed as previously described. Absorbance values were fitted to a four-parameter logistic equation using the Genesis Lite 3.03 (Life Sciences (UK) Ltd.) package software. The lower detection limit (DL) of the assays was estimated as the analyte concentration corresponding to the absorbance equal to that of the zero standard plus three times its standard deviation).

[2] = system: anti-PBA polyclonal antibodies; assay: Cross-reactivity of the noncompetitive phage ELISA for PBA; format: binding, rabbit; conditions: for CR (%): % cross-reactivity=100×[SC50(PBA)/SC50(cross-reacting compound)]; for IC50: noncompetitive phage ELISA for PBA
Procedure: The specificity of the noncompetitive assay set up with the phage borne peptide was characterized by determining its cross-reactivity with structurally related pesticides. PBA concentrations in the 0-50 ng/ml range were used in the noncompetitive ELISAs. Data were normalized, and the molar compound concentration corresponding to the midpoint of the curve, (which corresponds to the concentration of analyte producing 50% saturation of the signal (SC50), was used to express the cross-reactivity of the assay according to the equation:
% cross−reactivity=100×[SC50(PBA)/SC50(cross−reacting compound)]

[3] = system: atrazine-MoAb K4E7 immunocomplex; assay: Noncompetitive phage assay (PHAIA) for atrazine; format: binding; conditions: atrazine as analyte; MoAb K4E7 immobilized; phage borne peptides as tracers
Procedure: In this case, we used the MoAb K4E7 specific for atrazine. The conventional chemical hapten assay developed with this MoAb (see, e.g., Giersch, J Ag. Food Chem. 41: 1006-1011 (1993)) allows one to reach an IC50 of 0.5 ng/ml. We used the atrazine-MoAb K4E7 immunocomplex to select phage borne peptides that could be used to develop a noncompetitive assay. The protocols used for panning and assay set up were identical to those used for the molinate-MoAb 14D7 system described in Example 1 above. […] A short consensus sequence was identified: WFD. The consensus sequence can occur at position two or five of the random sequence. […]
as §2, with “The antibody concentration used for coating and the proper dilution of the phage suspension had been previously optimized by checkerboard experiments. After an hour incubation period at room temperature, the plates were washed and developed as previously described.” left out

[4] = system: MoAb 14D7; assay: Phage ELISA checkerboard titration: reactivity with the IC and the uncombined antibody; format: binding; conditions: wide range of MoAb 14D7 coating densities, absence of molinate
Procedure: as §1

[5] = system: MoAb K4E7; conditions: atrazine, Giersch 1993; cited from earlier work
[6] = system: MoAb K4E7; conditions: atrazine; Cardozo et al. 2005; cited from earlier work
[7] = system: MoAb 14D7; conditions: molinate, Rufo et al. 2004; cited from earlier work
[8] = system: MoAb 14D7; conditions: molinate; Cardozo et al. 2005; cited from earlier work

| Compound | SC50 (concentration of analyte producing 50% saturation) [1] | CR (%) [2] [%] | IC50 [2] [µg/mL] | other results |
| --- | --- | --- | --- | --- |
| C N R W D T T G W C (CNRWDTTGWC; not fully specified (bridges); cysteine pairing not given here; also: phage-displayed on pVIII) [8M2] | 6.1 ± 0.3 ng/mL and 6.0 ± 0.3 ng/mL | – | – | – |
| CC1(C)C(C=C(Cl)Cl)C1C(=O)OCc1cccc(Oc2ccccc2)c1 (stereo not drawn) [Permethrin] | – | 0 | >0.1 | – |
| C N I W D T S G W C (CNIWDTSGWC; phage-displayed) [mH, phage clone from the mutagenesis library] | 27 ± 2.0 ng/mL | – | – | – |
| C S I W D T T G W C (CSIWDTTGWC; phage-displayed) [mI12, phage clone from the mutagenesis library] | 8.1 ± 0.6 ng/mL | – | – | – |
| C S T W D T T G W C (CSTWDTTGWC; also: phage-displayed on pVIII, cyclic, bridge not given here) [1M] | 5.0 ± 0.4 ng/mL | – | – | SC50 (concentration of analyte producing 50% saturation) ([1]; listed as S1): 5 ng/mL |
| O=C(O)c1ccc(O)cc1 [4-Hydroxybenzoic acid] | – | 0 | >0.1 | – |
| CTPVRWFDMC (phage-displayed) [13A] | – | – | – | SC50 [3]: 0.0511 ± 0.002 ng/mL |
| CC(C)C(C(=O)OC(C#N)c1cccc(Oc2ccccc2)c1)c1ccc(Cl)cc1 (stereo not drawn) [Esfenvalerate] | – | 0 | >0.1 | – |
| CC1(C)C(C=C(Cl)Cl)C1C(=O)OC(C#N)c1cccc(Oc2ccccc2)c1 (stereo not drawn) [Cypermethrin] | – | 0 | >0.1 | – |
| C S Y W D T T G W C (CSYWDTTGWC; phage-displayed) [mG, phage clone from the mutagenesis library] | 16 ± 0.7 ng/mL | – | – | – |
| C N L W D T T G W C (CNLWDTTGWC; phage-displayed) [mF, phage clone from the mutagenesis library] | 11 ± 0.5 ng/mL | – | – | – |
| C S L W D T T G W C (CSLWDTTGWC; phage-displayed) [mA, phage clone from the mutagenesis library] | 8.5 ± 0.5 ng/mL | – | – | residual reactivity with the free (uncombined) antibody [4]: little reactivity with the free antibody |
| C S V W D T S G W C (CSVWDTSGWC; not fully specified (bridges); cysteine pairing not given here; also: phage-displayed) [10M2] | 32 ± 5 ng/mL and 32 ± 4.9 ng/mL | – | – | SC50 (concentration of analyte producing 50% saturation) ([1]; listed as S4): 32 ng/mL |
| CCNc1nc(Cl)nc(NC(C)C)n1 [atrazine] | – | – | – | SC50 [3]: 0.2 to 0.8 ng/mL; IC50 of conventional chemical hapten assay [5]: 0.0005 µg/mL; IC50 of competitive assay set up with the same antibody [6]: 0.00064 ± 6e-05 µg/mL |
| O=C(O)CNC(=O)c1cccc(Oc2ccccc2)c1 [PBA-glycine conjugate] | – | 0 | >0.1 | – |
| CCSC(=O)N1CCCCCC1 [molinate] | – | – | – | IC50 of competitive assay set up with heterologous chemical haptens [7]: 69 ng/ml and 69.2±1.4 ng/ml; IC50 of phage competitive assay [8]: 0.045 µg/mL |

Source: US20080305559A1, “Non-Competitive Immunoassays to Detect Small Molecules” (priority 2005, published 2008)
